Measured values as given in US5047228A, “Nonionic 5-C-substituted 2,4,6-triiodoisophthalic acid derivatives” (Schering Aktiengesellschaft, priority 1980, dated 1991).

Key:
Iodine content = format: physicochemical
dog erythrocytes = test: Erythrocyte damage (echinocyte formation in dog erythrocytes); format: cell-based; conditions: effect of metrizamide set at 10 as a standard, smaller number = higher compatibility
Description: The deformation of erythrocytes (erythrocyte damage) due to X-ray contrast media can be taken as a measure for the membrane-damaging effect of the compound. In this instance, the formation of echinocytes was measured in dog erythrocytes, setting the effect of metrizamide at 10 as a standard. A smaller number signifies a correspondingly higher compatibility.

[1] = Distribution coefficient butanol/buffer pH 7.6; format: physicochemical
Description: The distribution coefficient of a compound permits ascertainment of its hydrophilicity and thus its compatibility; the lower the value of the distribution coefficient, the higher the compatibility of the compound tested.

LD50 rat (i.v.) = conditions: in vivo, iv, injection rate 2 ml/min, concentration 300 mg/ml, observation period 24 h
Description: (§1) *Injection rate 2 ml/min; concentration 300 mg/ml; observation period 24

[2] = Stability in heat sterilization; format: physicochemical
Description: The present invention comprises nonionic X-ray contrast media based on the opacifying compounds of this invention with novel basic structures. These novel opacifying compounds are distinguished by a number of advantages. They are derived from triiodinated aromatic basic components which themselves are hydrophilic and nontoxic. […] They are also distinguished by a high chemical stability, especially also under the conditions of heat sterilization.
Solutions of the compounds of this invention can thus also be sterilized in the usual way by heating to 120° C. at a physiological pH value. The solutions have a low osmotic pressure even at high iodine concentrations, compared with the state of the art ionic X-ray contrast media. This is especially a prerequisite for a good local compatibility.

LD50 mouse (i.v.) = conditions: in vivo, iv, injection rate 2 ml/min, concentration 300 mg/ml, observation period 24 h
Description: as §1

SMILES | Iodine Content (Iodine content) [%] | Erythrocyte Damage (dog erythrocytes) | Distribution Coefficient Butanol/Buffer pH 7.6 [1] | LD50 at 24 h (LD50 rat (i.v.)) [mg/kg] | Stable in Heat Sterilization [2] | LD50 at 24 h (LD50 mouse (i.v.)) [mg/kg]
CC(=O)Nc1c(I)c(C(=O)N[C@H]2C(O)O[C@H](CO)[C@@H](O)[C@@H]2O)c(I)c(N(C)C(C)=O)c1I (stereo partly drawn) [A, reference compound] | 48 | 10 | 0.259 | 11000 | No | 12000
CN(CC(O)CO)C(=O)c1c(I)c(C(=O)N(C)CC(O)CO)c(I)c(C(=O)N(C)CC(O)CO)c1I (stereo not drawn) [B, 2,4,6-triiodobenzene-1,3,5-tricarboxylic acid tris(2,3-dihydroxypropyl-N-methyl)triamide] | 45 | 2.1 | 0.064 | 11000 | Yes | 16000
O=C(c1c(I)c(C(=O)N(CCO)CCO)c(I)c(C(=O)N(CCO)CCO)c1I)N(CCO)CCO [C, 2,4,6-triiodobenzene-1,3,5-tricarboxylic acid tris(bis-2-hydroxyethyl)triamide] | 45 | 1.8 | 0.131 | 12000 | Yes | –
CN(CC(O)CO)C(=O)c1c(I)c(C(N)=O)c(I)c(C(=O)N(C)CC(O)CO)c1I (stereo not drawn) [D, 2,4,6-triiodobenzene-1,3,5-tricarboxylic acid bis(2,3-dihydroxypropyl-N-methyl)triamide] | 50 | 4.2 | 0.074 | – | Yes | –
CN(CC(O)C(O)C(O)C(O)CO)C(=O)c1c(I)c(C(=O)N(C)CC(O)C(O)C(O)C(O)CO)c(I)c(C(=O)N(C)CC(O)C(O)C(O)C(O)CO)c1I (stereo not drawn) [E, 2,4,6-triiodobenzene-1,3,5-tricarboxylic acid tris(2,3,4,5,6-pentahydroxyhexyl-N-methyl)triamide] | 34 | < 0.3 | < 0.001 | – | Yes | –
CN(C)C(=O)c1c(I)c(C(=O)NCC(O)CO)c(I)c(C(=O)NCC(O)CO)c1I (stereo not drawn) [F, 2,4,6-triiodobenzene-1,3,5-tricarboxylic acid [(N,N-dimethyl)-bis(2,3-dihydroxypropyl)]-triamide] | 50 | 2.7 | 0.171 | 11000 | Yes | 14000
CNC(=O)c1c(I)c(C(=O)NC(CO)C(O)CO)c(I)c(C(=O)NC(CO)C(O)CO)c1I (stereo not drawn) [G, 5-N-methylcarbamoyl-2,4,6-triiodoisophthalic acid bis(2,3-dihydroxy-1-hydroxymethylpropyl)diamide] | 47 | 2.8 | 0.065 | 19000 | Yes | –
